The structures appear in SMILES notation.

The nature of this series: physchem. Particulars: 20% DMF.

Take `CN(C)c1cc(NS(C)(=O)=O)ccc1Nc1c2ccccc2nc2ccccc12`: the pKa (in general, the negative logarithm of the acid dissociation constant) worked out at 7.25.

Compound `CNc1cc(NS(C)(=O)=O)ccc1Nc1c2ccccc2nc2ccccc12` yielded a pKa of 7.47.

(Values after ChEMBL document CHEMBL1123714, “Potential antitumor agents. 48. 3'-Dimethylamino derivatives of amsacrine: redox chemistry and in vivo solid tumor activity” (J Med Chem, 1987).)
